Test results as given in US11986482B2, “Method of promoting antitumor or anti-cancer immunity” (City University of Hong Kong, priority 2021, dated 2024).

Tests used:
PD-L1 = PD-L1 colocalization imaging in PD-L1-GFP HeLa cells; type: cell-based; conditions: 1 μM, 24 h
Description: Next, inventors assess if 6J1 can compromise PD-L1 trafficking. PDL1-GFP stable expressing HeLa cells are treated with or without 6J1 (1 μM) for 24 h. Cells are fixed and stained with Rab5 or EEA1. Their quantifications of the colocalization are shown in FIGS. 4d and 4e, respectively. […] Inventors thus further quantify cell membrane PD-L1 levels in live cells treated with or without 6J1 by flow cytometry or confocal imaging.
(§1) It has previously been shown that interfering with endosomal trafficking promotes exosome secretion. Moreover, PD-L1 has been reported to be enriched in exosomes and secreted outside the cell. Thus, inventors speculate that 6J1 may induce the secretion of the PD-L1 trapped in the endosomal compartments via exosomes. To determine whether 6J1 may induce the secretion of PD-L1 via exosomes, HeLa cells are treated with or without 6J1 (1 μM) for 24 h. The supernatant is collected. Inventors purify the exosomes from the supernatant of HeLa cells by sequential centrifugation. The concentration of extracellular vesicle is determined using a Nanosight nanoparticle analyzer. And HeLa cells are treated with or without 6J1 (1 μM) for 48 h. The cell and supernatant are collected for Western Blot analysis. […] Moreover, the activity of Rab27a in HeLa cells treated with or without 6J1 (1 μM) is examined with a GST-SHD pulldown assay.
HeLa cells are treated with or without 6J1. After 6 h, cells are collected for western blot analysis of LC3 and p62. […] In addition, ATG5-knockout HeLa cells are transfected with PD-L1-GFP and LC3-RFP, and then treated with or without 6J1 (1 μM) for 24 h. Cells are fixed and imaged. […] Furthermore, LC3B-knockout HeLa cells are transfected with PD-L1-GFP, and then treated with or without 6J1 (1 μM) for 24 h. Cells are fixed and stained with antibodies against Rab5 (FIG. 6d) or Rab27a (FIG. 6e).

Rab27a = target: T1, Rab27a (Homo sapiens, UniProt P51159); assay: GST-SHD pulldown assay of Rab27a activity; type: cell-based; conditions: HeLa cells, 1 μM
T1 construct: western blot analysis of Rab27a in HeLa cells treated with or without 6J1 (1 μM) through a GST-SHD pulldown assay; endogenous in cells; host or cells: HeLa cells
T1 sequence (P51159 1-221): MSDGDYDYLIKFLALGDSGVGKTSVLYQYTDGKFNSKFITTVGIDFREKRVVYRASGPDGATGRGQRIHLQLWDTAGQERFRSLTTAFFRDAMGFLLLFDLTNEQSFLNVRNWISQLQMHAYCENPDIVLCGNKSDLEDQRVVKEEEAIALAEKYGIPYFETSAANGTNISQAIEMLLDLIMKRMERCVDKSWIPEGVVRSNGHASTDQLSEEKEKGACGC
Description: as §1

4T1 cells [1] = assay: T cell-mediated tumor cell killing assay; type: cell-based, mouse; conditions: 6J1 (1 µM) per FIG. 8d legend, CCK8 assay
4T1 cells [2] = assay: Chemokine level in supernatant of 4T1 cells; type: cell-based, mouse; conditions: in vitro, 1 μM
Raw246.7 cells = assay: Chemokine level in supernatant of Raw246.7 cells; type: cell-based; conditions: in vitro, 1 μM
[3] = Repeated-dose oral gavage toxicity in rats, up to 7 days; conditions: rat, in vivo
Description: Inventors also evaluate the toxicity profile following oral gavage administration of 6J1 at dose levels of 0 (vehicle), 150, 450, and 1000 mg/kg once daily for up to 7 consecutive days to rats. Rats of the 300 mg/kg group are tested separately from other groups (showing higher initial weight than other groups), and rats of 450 and 1000 mg/kg groups are terminated on day 4 due to several clinical findings.

SMILES: OCCOCCN(c1ccccc1)c1nc(N/N=C/c2cccc(I)c2)nc(N2CCOCC2)n1 [Compound 6J1]
- 6J1-induced PD-L1 puncta (PD-L1; ATG5-knockout HeLa cells): no effect on 6J1-induced PD-L1 puncta
- PD-L1/LC3B colocalization in 6J1-treated cells (PD-L1; ATG5-knockout HeLa cells): abolishes this colocalization between PD-L1 and LC3B
- 6J1-induced PD-L1 puncta and PD-L1 colocalization with RAB5 or RAB27A (PD-L1; LC3B-knockout HeLa cells): LC3B knockout does not affect
- accumulation of PD-L1 in vesicles colocalized with early endosome markers EEA1 and RAB5 (PD-L1; PD-L1-GFP HeLa cells): clearly induces the accumulation of PD-L1 within vesicle-like structures in the cytoplasm
- colocalization between PD-L1 and RAB11 (recycling endosome marker) (PD-L1; PD-L1-GFP HeLa cells): markedly decreases the colocalization between PD-L1 and RAB11
- colocalization of PD-L1 with exosomal markers TSG101, CD63, Rab27A (PD-L1; PD-L1-GFP HeLa cells): significantly induces the colocalization of PD-L1 with the exosomal markers
- colocalization of PD-L1-containing vesicles with LC3B puncta (PD-L1; control HeLa cells with PD-L1-GFP and LC3-RFP): strongly colocalized with LC3B puncta
- activity of Rab27a-GTPase (Rab27a): significantly increases the activity of Rab27a-GTPase
- sensitivity of 4T1 cells to pre-activated T cell-mediated cytolysis (4T1 cells [1]): more sensitive to pre-activated T cell-mediated cytolysis
- secretion of various chemokines from 4T1 cells (4T1 cells [2]): markedly induces the secretion of various chemokines
- secretion of various chemokines from Raw246.7 cells (Raw246.7 cells): markedly induces the secretion of various chemokines
- findings at 450 and 1000 mg/kg [3]: severe clinical findings
- therapeutic window in experimental animals [3]: at least 10 fold
- clinical signs at 300 mg/kg ([3]; po, 300 mg/kg): soft feces, hunched posture, and reduced feces
- finding at 1000 mg/kg ([3]; po, 1000 mg/kg): mortality
- dose levels not tolerated on repeated daily dosing ([3]; po, 4 days): ≥ 450 mg/kg
- repeated daily dosing considered tolerated up to ([3]; po, 7 days): up to 300 mg/kg
